Experimental data: patent US20230279025A1, “KRAS G12D INHIBITORS” (Mirati Therapeutics, Inc., priority 2020, published 2023)
Where a name gives a salt, the structure may show the parent alone.

Target: KRas G12D (Homo sapiens (Human), UniProt P01116, G12D)
Assay: KRas G12D Binding Assay (TR-FRET displacement of Cy5 labelled tracer)
Conditions: GDP-loaded KRAS G12D (amino acids 1:169), 60 minute incubation at 22° C.
Experimental: After a 60 minute incubation at 22° C., the reaction was measured using a PerkinElmer EnVision multimode plate reader via TR-FRET dual wavelength detection, and the percent of control (POC) calculated using a ratiometric emission factor. […] The POC values were fit to a 4-parameter logistic curve and the IC50 value was determined as the concentration where the curve crosses 50 POC.
ND stands for “not determined.”

Chain of KRas G12D (P01116 other isoform, or with tags, fused parts or gaps G12D): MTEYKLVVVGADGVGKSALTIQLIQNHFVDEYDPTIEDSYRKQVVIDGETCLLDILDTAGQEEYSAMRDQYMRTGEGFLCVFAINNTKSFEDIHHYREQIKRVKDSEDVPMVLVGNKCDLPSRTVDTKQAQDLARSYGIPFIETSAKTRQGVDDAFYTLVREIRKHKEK

| Structure (SMILES) | IC50 [nM] |
| --- | --- |
| Cc1cc(-c2ncc3c(N4C[C@H]5CC[C@@H](C4)N5)nc(OCC45CCCN4CCC5)nc3c2F)c2c(Cl)cccc2c1 [Example 175, 4-((1R,5S)-3,8-diazabicyclo[3.2.1]octan-3-yl)-7-(8-chloro-3-methylnaphthalen-1-yl)-8-fluoro-2-((hexahydro-1H-pyrrolizin-7a-yl)methoxy)pyrido[4,3-d]pyrimidine] | 63.8 |
| Cc1ccc2c(-c3ncc4c(N5C[C@H]6CC[C@@H](C5)N6)nc(OC[C@@H]5CCCN5C)nc4c3F)cccc2c1 [Example 207, 4-((1R,5S)-3,8-diazabicyclo[3.2.1]octan-3-yl)-8-fluoro-7-(6-methylnaphthalen-1-yl)-2-(((S)-1-methylpyrrolidin-2-yl)methoxy)pyrido[4,3-d]pyrimidine] | 4910 |
| CS(=O)(=O)NC[C@H]1CC[C@@]2(COc3nc(N4C[C@H]5CC[C@@H](C4)N5)c4cnc(-c5cccc6cccc(Cl)c56)c(F)c4n3)CCCN12 [Example 420, N-(((3R,7aR)-7a-(((4-((1R,5S)-3,8-diazabicyclo[3.2.1]octan-3-yl)-7-(8-chloronaphthalen-1-yl)-8-fluoropyrido[4,3-d]pyrimidin-2-yl)oxy)methyl)hexahydro-1H-pyrrolizin-3-yl)methyl)methanesulfonamide] | 20 |
| Fc1c(-c2ccccc2Cl)ncc2c(N3CC4CCC(C3)N4)nc(OC[C@@]34CCCN3C[C@H](F)C4)nc12 (stereo in doubt) [Example 414, 4-((1R,5S)-3,8-diazabicyclo[3.2.1]octan-3-yl)-7-(2-chlorophenyl)-8-fluoro-2-((2-fluorotetrahydro-1H-pyrrolizin-7a(5H)-yl)methoxy)pyrido[4,3-d]pyrimidine] | 873 |
| Cn1cc([C@H]2CN3CCC[C@]3(COc3nc(N4CC5CCC(C4)N5)c4cnc(-c5cccc6cccc(Cl)c56)c(F)c4n3)C2)cn1 (stereo in doubt) [Example 220, 4-((1R,5S)-3,8-diazabicyclo[3.2.1]octan-3-yl)-7-(8-chloronaphthalen-1-yl)-8-fluoro-2-((2-(1-methyl-1H-pyrazol-4-yl)tetrahydro-1H-pyrrolizin-7a(5H)-yl)methoxy)pyrido[4,3-d]pyrimidine tris-hydrochloride salt] | 8.7 |
| CCc1c(F)ccc2cccc(-c3ncc4c(N5CC6CCC(C5)N6)nc(OC[C@@]56CCCN5C[C@H](F)C6)nc4c3F)c12 (stereo in doubt) [Example 381, 4-((1R,5S)-3,8-diazabicyclo[3.2.1]octan-3-yl)-7-(8-ethyl-7-fluoronaphthalen-1-yl)-8-fluoro-2-((2-fluorotetrahydro-1H-pyrrolizin-7a(5H)-yl)methoxy)pyrido[4,3-d]pyrimidine] | 0.7 |
| Oc1ccc(OC(F)(F)F)c(-c2ncc3c(N4CC5CCC(C4)N5)nc(OCC45CCCN4C[C@H](F)C5)nc3c2F)c1 (mixture of isomers) [Example 340, 3-(4-((1R,5S)-3,8-diazabicyclo[3.2.1]octan-3-yl)-8-fluoro-2-((2-fluorotetrahydro-1H-pyrrolizin-7a(5H)-yl)methoxy)pyrido[4,3-d]pyrimidin-7-yl)-4-(trifluoromethoxy)phenol (racemic, trans)] | 0.4 |
| Fc1c(-c2ccccc2C(F)F)ncc2c(N3C[C@H]4CC[C@@H](C3)N4)nc(OCC34CCCN3CCC4)nc12 [Example 293, 4-((1R,5S)-3,8-diazabicyclo[3.2.1]octan-3-yl)-7-(2-(difluoromethyl)phenyl)-8-fluoro-2-((hexahydro-1H-pyrrolizin-7a-yl)methoxy)pyrido[4,3-d]pyrimidine] | 692 |
| CCc1ccccc1-c1ncc2c(N3C[C@H]4CC[C@@H](C3)N4)nc(OCC34CCCN3CCC4)nc2c1F [Example 295, 4-((1R,5S)-3,8-diazabicyclo[3.2.1]octan-3-yl)-7-(2-ethylphenyl)-8-fluoro-2-((hexahydro-1H-pyrrolizin-7a-yl)methoxy)pyrido[4,3-d]pyrimidine] | 192 |
